From PubChem BioAssay AID1963439 (Molecular Pharmacology Branch, DTP, NCI, 2024)

Tested on: NCI-H196 complex spheroids with HUVEC/MSC, growth % T/C
Assay: Anticancer human tumor NCI-H196 cell line growth inhibition [Asc];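 note: spheroids exposed to compound for 7 days before measurement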;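 for viability, T/C: 100% = DMSO vehicle control wells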
Conditions: for IC50: curve of first compound; for viability, T/C: stronger effect = lower value
In short: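 Tumor cells were grown as complex spheroids with human endothelial cells (HUVEC) and human mesenchymal stem cells as stroma. Agents were tested alone and in combination, in half-log steps down from the clinical Cmax, or from 10 microM where Cmax was unknown.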

[1] = second compound 0.03 µM, first compound 0.0316 µM
[2] = second compound 0.03 µM, first compound 0.1 µM
[3] = second compound 0.03 µM, first compound 0.316 µM
[4] = second compound 0.03 µM, first compound 1 µM
[5] = second compound 0.0949 µM, first compound 0.0316 µM
[6] = second compound 0.0949 µM, first compound 0.1 µM
[7] = second compound 0.0949 µM, first compound 0.316 µM
[8] = second compound 0.0949 µM, first compound 1 µM
[9] = second compound 0.3 µM, first compound 0.0316 µM
[10] = second compound 0.3 µM, first compound 0.1 µM
[11] = second compound 0.3 µM, first compound 0.316 µM
[12] = second compound 0.3 µM, first compound 1 µM
[13] = second compound 0.949 µM, first compound 0.0316 µM
[14] = second compound 0.949 µM, first compound 0.1 µM
[15] = second compound 0.949 µM, first compound 0.316 µM
[16] = second compound 0.949 µM, first compound 1 µM
[17] = second compound 3 µM, first compound 0.0316 µM
[18] = second compound 3 µM, first compound 0.1 µM
[19] = second compound 3 µM, first compound 0.316 µM
[20] = second compound 3 µM, first compound 1 µM
[21] = second compound 0.03 µM, first compound 0.00316 µM
[22] = second compound 0.03 µM, first compound 0.01 µM
[23] = second compound 0.0949 µM, first compound 0.00316 µM
[24] = second compound 0.0949 µM, first compound 0.01 µM
[25] = second compound 0.3 µM, first compound 0.00316 µM
[26] = second compound 0.3 µM, first compound 0.01 µM
[27] = second compound 0.949 µM, first compound 0.00316 µM
[28] = second compound 0.949 µM, first compound 0.01 µM
[29] = second compound 3 µM, first compound 0.00316 µM
[30] = second compound 3 µM, first compound 0.01 µM

Cc1nc(N2CCC3(CC2)COC(C)C3N)c(CO)nc1Sc1ccnc(N)c1Cl (stereo not given) + Cc1c(S(C)(=O)=O)c(-c2cc(F)cc(N3CCN(c4ccc(NS(=O)(=O)c5ccc(NC(CCN6CCC(C(=O)OCCCP(=O)(O)O)CC6)CSc6ccccc6)c(S(=O)(=O)C(F)(F)F)c5)cc4)CC3)c2)c(-c2ccc(Cl)cc2)n1C(C)C
IC50 (second compound 0.1 µM): 1350 nM | IC50 (second compound 0.316 µM): 1140 nM | IC50 (second compound 1 µM): 1150 nM | IC50 (second compound 3.16 µM): 930 nM | IC50 (second compound 10 µM): 1170 nM | viability, T/C (second compound 0.1 µM, first compound 0.00949 µM): 111% | viability, T/C (second compound 0.1 µM, first compound 0.03 µM): 118% | viability, T/C (second compound 0.1 µM, first compound 0.0949 µM): 96.2% | viability, T/C (second compound 0.1 µM, first compound 0.3 µM): 87.8% | viability, T/C (second compound 0.1 µM, first compound 0.949 µM): 60.1% | viability, T/C (second compound 0.1 µM, first compound 3 µM): 26.3% | viability, T/C (second compound 0.316 µM, first compound 0.00949 µM): 93.4% | viability, T/C (second compound 0.316 µM, first compound 0.03 µM): 102% | viability, T/C (second compound 0.316 µM, first compound 0.0949 µM): 109% | viability, T/C (second compound 0.316 µM, first compound 0.3 µM): 93.8% | viability, T/C (second compound 0.316 µM, first compound 0.949 µM): 55.2% | viability, T/C (second compound 0.316 µM, first compound 3 µM): 24% | viability, T/C (second compound 1 µM, first compound 0.00949 µM): 93.1% | viability, T/C (second compound 1 µM, first compound 0.03 µM): 97.9% | viability, T/C (second compound 1 µM, first compound 0.0949 µM): 98.1% | viability, T/C (second compound 1 µM, first compound 0.3 µM): 87% | viability, T/C (second compound 1 µM, first compound 0.949 µM): 55.4% | viability, T/C (second compound 1 µM, first compound 3 µM): 24% | viability, T/C (second compound 3.16 µM, first compound 0.00949 µM): 93.9% | viability, T/C (second compound 3.16 µM, first compound 0.03 µM): 97.8% | viability, T/C (second compound 3.16 µM, first compound 0.0949 µM): 103% | viability, T/C (second compound 3.16 µM, first compound 0.3 µM): 84.9% | viability, T/C (second compound 3.16 µM, first compound 0.949 µM): 49.9% | viability, T/C (second compound 3.16 µM, first compound 3 µM): 22.9% | viability, T/C (second compound 10 µM, first compound 0.00949 µM): 84.7% | viability, T/C (second compound 10 µM, first compound 0.03 µM): 93.7% | viability, T/C (second compound 10 µM, first compound 0.0949 µM): 88.5% | viability, T/C (second compound 10 µM, first compound 0.3 µM): 78% | viability, T/C (second compound 10 µM, first compound 0.949 µM): 55.9% | viability, T/C (second compound 10 µM, first compound 3 µM): 24.7%

C=CC(=O)N1CCN(c2nc(=O)n(-c3c(C)ccnc3C(C)C)c3nc(-c4c(O)cccc4F)c(F)cc23)C(C)C1 (stereo not given) + CCN1C(C(=O)NC23CCC(C(=O)O)(CC2)CC3)C(c2cccc(Cl)c2F)C2(C(=O)Nc3cc(Cl)ccc32)C12CCCCC2
IC50 (second compound 0.03 µM): > 10000 nM | IC50 (second compound 0.0949 µM): > 10000 nM | IC50 (second compound 0.3 µM): > 10000 nM | IC50 (second compound 0.949 µM): > 10000 nM | IC50 (second compound 3 µM): > 10000 nM | viability, T/C [1]: 104% | viability, T/C [2]: 105% | viability, T/C [3]: 104% | viability, T/C [4]: 107% | viability, T/C (second compound 0.03 µM, first compound 3.16 µM): 121% | viability, T/C (second compound 0.03 µM, first compound 10 µM): 107% | viability, T/C [5]: 111% | viability, T/C [6]: 111% | viability, T/C [7]: 121% | viability, T/C [8]: 112% | viability, T/C (second compound 0.0949 µM, first compound 3.16 µM): 106% | viability, T/C (second compound 0.0949 µM, first compound 10 µM): 103% | viability, T/C [9]: 106% | viability, T/C [10]: 109% | viability, T/C [11]: 108% | viability, T/C [12]: 107% | viability, T/C (second compound 0.3 µM, first compound 3.16 µM): 117% | viability, T/C (second compound 0.3 µM, first compound 10 µM): 119% | viability, T/C [13]: 123% | viability, T/C [14]: 110% | viability, T/C [15]: 115% | viability, T/C [16]: 110% | viability, T/C (second compound 0.949 µM, first compound 3.16 µM): 140% | viability, T/C (second compound 0.949 µM, first compound 10 µM): 110% | viability, T/C [17]: 116% | viability, T/C [18]: 120% | viability, T/C [19]: 115% | viability, T/C [20]: 124% | viability, T/C (second compound 3 µM, first compound 3.16 µM): 135% | viability, T/C (second compound 3 µM, first compound 10 µM): 132%

Cn1ncnc1[C@H]1c2n[nH]c(=O)c3cc(F)cc(c23)N[C@@H]1c1ccc(F)cc1 + CCN1C(C(=O)NC23CCC(C(=O)O)(CC2)CC3)C(c2cccc(Cl)c2F)C2(C(=O)Nc3cc(Cl)ccc32)C12CCCCC2
IC50 (second compound 0.03 µM): > 100 nM | IC50 (second compound 0.0949 µM): > 100 nM | IC50 (second compound 0.3 µM): > 100 nM | IC50 (second compound 0.949 µM): > 100 nM | IC50 (second compound 3 µM): > 100 nM | viability, T/C (second compound 0.03 µM, first compound 0.000316 µM): 107% | viability, T/C (second compound 0.03 µM, first compound 0.001 µM): 109% | viability, T/C [21]: 107% | viability, T/C [22]: 108% | viability, T/C [1]: 107% | viability, T/C [2]: 104% | viability, T/C (second compound 0.0949 µM, first compound 0.000316 µM): 118% | viability, T/C (second compound 0.0949 µM, first compound 0.001 µM): 125% | viability, T/C [23]: 114% | viability, T/C [24]: 102% | viability, T/C [5]: 114% | viability, T/C [6]: 109% | viability, T/C (second compound 0.3 µM, first compound 0.000316 µM): 118% | viability, T/C (second compound 0.3 µM, first compound 0.001 µM): 128% | viability, T/C [25]: 119% | viability, T/C [26]: 121% | viability, T/C [9]: 113% | viability, T/C [10]: 112% | viability, T/C (second compound 0.949 µM, first compound 0.000316 µM): 139% | viability, T/C (second compound 0.949 µM, first compound 0.001 µM): 138% | viability, T/C [27]: 120% | viability, T/C [28]: 118% | viability, T/C [13]: 112% | viability, T/C [14]: 126% | viability, T/C (second compound 3 µM, first compound 0.000316 µM): 124% | viability, T/C (second compound 3 µM, first compound 0.001 µM): 136% | viability, T/C [29]: 132% | viability, T/C [30]: 129% | viability, T/C [17]: 131% | viability, T/C [18]: 121%

CNC(C)C(=O)NC1CN(S(=O)(=O)c2cccc(S(=O)(=O)N3CCC4CCC(C(=O)NC(c5ccccc5)c5ccccc5)N4C(=O)C(NC(=O)C(C)NC)C3)c2)CCC2CCC(C(=O)NC(c3ccccc3)c3ccccc3)N2C1=O (stereo not given) + CCN1C(C(=O)NC23CCC(C(=O)O)(CC2)CC3)C(c2cccc(Cl)c2F)C2(C(=O)Nc3cc(Cl)ccc32)C12CCCCC2
IC50 (second compound 0.03 µM): < 3.16 nM | IC50 (second compound 0.0949 µM): < 3.16 nM | IC50 (second compound 0.3 µM): < 3.16 nM | IC50 (second compound 0.949 µM): 3.18 nM | IC50 (second compound 3 µM): < 3.16 nM | viability, T/C [21]: 40.6% | viability, T/C [22]: 17.9% | viability, T/C [1]: 4.75% | viability, T/C [2]: 1.79% | viability, T/C [3]: 2.4% | viability, T/C [4]: 1.46% | viability, T/C [23]: 45.3% | viability, T/C [24]: 19.1% | viability, T/C [5]: 4.24% | viability, T/C [6]: 4.09% | viability, T/C [7]: 2.61% | viability, T/C [8]: 1.28% | viability, T/C [25]: 47.4% | viability, T/C [26]: 16.6% | viability, T/C [9]: 5.95% | viability, T/C [10]: 3.82% | viability, T/C [11]: 3.47% | viability, T/C [12]: 1.29% | viability, T/C [27]: 50.4% | viability, T/C [28]: 18.4% | viability, T/C [13]: 6.82% | viability, T/C [14]: 2.74% | viability, T/C [15]: 2.84% | viability, T/C [16]: 2.2% | viability, T/C [29]: 47.6% | viability, T/C [30]: 16.9% | viability, T/C [17]: 4.77% | viability, T/C [18]: 2.4% | viability, T/C [19]: 3.09% | viability, T/C [20]: 1.59%
